Values of other authors in patent publication US20150374878A1, “[…] FOR WOUND CARE” (AKESO BIOMEDICAL, INC., priority 2014, published 2015).

Conditions: see U.S. Pat. No. 5,858,365 to Faller

half-life in serum: about 2 minutes
SMILES: CCCC(=O)O [butyric acid]
